The source of these data is PMC10102643, “A mass balance study of [^14C]SHR6390 (dalpiciclib), a selective and potent CDK4/6 inhibitor in humans” (Frontiers in Pharmacology, 2023).

The structures appear in SMILES notation.

The nature of this data set: Quantitative metabolite radioprofiling in pooled plasma, urine and stool (UHPLC-FC / HRMS). Conditions: pooled 0–168 h stool. It counts as in vivo, human.

Experimental: The plasma sample (15 mL) after pooled was added 15 mL methanol and 15 mL acetonitrile and centrifugation (3,500 rpm, 10 min, 4°C). Extract the centrifuged solid with 7.5 mL water and 22.5 mL methanol acetonitrile (50:50, v: v). The first two extracted supernatants were combined and concentrated. The concentration of the substance is at 200 μL Acetonitrile water (20:80, v: v) was dissolved again and centrifuged again (3,600 rpm, 10 min, 4°C). Part of the supernatant was injected into the UHPLC-FC (Fraction collector) system (Thermo). The eluent from the UHPLC was collected into the Deepwell LumaPlate 96 (PerkinElmer) at the rate of 10 s per well within minutes. The total collection time is 35 min. The plates were dried by Integrated SpeedVac (Thermo), and the radiation value of each well were detected by a microplate reader (Sense Beta Hidex, Finland). Data were reconstructed to radio-chromatogram by Laura software (Lablogic, United Kingdom) to give the radio profiling of plasma.
The combined samples were centrifuged, concentrated by N2 and dissolved in a 200 μL mixture of 40 mL acetonitrile and 160 mL-water, and 120 μL was injected into the UHPLC-FC system (Thermo). Other operation steps are the same as those of plasma.
Add 6 mL methanol acetonitrile (50:50, v: v) to the combined fecal homogenate (2 g) sample. The mixture was then whirled (1 min) and centrifuged6 (3,500 rpm, 10 min, 4°C). […]

As for `CC(=O)c1c(C)c2cnc(Nc3ccc(C(CCN)CCO)cn3)nc2n(C2CCCC2)c1=O` (stereo not shown) [M464-2], the “abundance in stool (in words)” value is “minor metabolites”.
